Measurements published in patent US4059694A, “Cardiotonic agent” (The University of Hawaii, priority 1976, dated 1977).
Read-outs that look alike come from different tables or passages of the source.

Experiments:
mice = experiment: Acute toxicity (LD50) in mice, i.p.; type: in vivo
Description: (§1) Anthopleurin-A can be further characterized by its pharmacological characteristics. […] The LD50 in mice (i.p.) is about 0.2-0.3 mg./kg.

isolated heart [1] = experiment: Cardiotonic effect in the isolated heart, rat; type: cell-based
From the text: (§2) This cardiac stimulation is observed in animals by measuring the in vitro contractile effect on isolated heart muscle and in vivo in anesthetized dogs fitted with a cardiac strain gauge.

in situ heart [2] = experiment: Cardiotonic effect in the in situ heart, dog; type: in vivo
From the text: as §2

[3] = tested on: isolated guinea pig atria; experiment: Positive inotropic effect on isolated guinea pig atria; type: cell-based
Description: as §1

heart rate = experiment: Chronotropic effect (heart rate)
Na, K-ATPase = experiment: Enzyme inhibition, Na, K-ATPase; type: biochemical; conditions: 3 × 10^-8 M
monoamine oxidase = experiment: Enzyme inhibition, monoamine oxidase; type: biochemical; conditions: 3 × 10^-8 M
[4] = Dependence of drug action and toxicity on external Ca++ and K+, compared with ouabain
isolated vascular muscle = experiment: Mechanical effect on the isolated vascular muscle; type: cell-based
isolated heart [5] = experiment: Cardiotonic effect in the isolated heart, cat; type: cell-based
From the text: as §2

atria = experiment: Inotropic effect on atria under stressful conditions; type: cell-based; conditions: severe temperature stress, anoxia and low Ca^++ concentrations
[6] = tested on: catechol-O-methyltransferase; experiment: Enzyme inhibition, catechol-O-methyltransferase; type: biochemical; conditions: 3 × 10^-8 M
in situ heart [7] = experiment: Cardiotonic effect in the in situ heart, cat; type: in vivo
blood pressure = experiment: Effect on blood pressure; conditions: in vivo
Solubility in water = type: physicochemical; conditions: deionized water
[8] = tested on: cyclic 3', 5'-nucleotide phosphodiesterase; experiment: Enzyme inhibition, cyclic 3', 5'-nucleotide phosphodiesterase; type: biochemical; conditions: 3 × 10^-8 M
isolated heart [9] = experiment: Cardiotonic effect in the isolated heart, guinea pig; type: cell-based
From the text: as §2

[10] = Stability of anthopleurin-A on storage and in solution; type: physicochemical
Isoelectric focusing = type: physicochemical; conditions: doubly purified material
From the text: For the purpose of obtaining electrophoretic and amino acid analysis the anthopleurin-A obtained in Example 1 was rechromatographed on CM Sephadex C-25, Sephadex G-50 and G-10 according to the process set forth in Example 1, Steps c, d and e, respectively. The doubly purified material was subject to electrophoretic analysis using commercially available pre-cast 12% acrylamide gels and matched buffer systems obtained from Bio.Rad Laboratories, 32nd and Griffin, Richmond, California.
Isoelectric focusing gives the isoelectric point at a pH = 8.2. Disc gel electrophoresis with 12% polyacrylamide gel at pH 3.6 gave an Rf value of 0.46 versus methyl green tracking dye. […] Sodium dodecyl sulfate (SDS) disc gel electrophoresis using a 10% gel indicated a m.w. of about 4,700 after incubation with dithioerythritol, using RNase A and pancreatic trypsin inhibitor (PTI) for comparison. The molecular weight is so low that these values are only approximate. AP-A was determined to be a peptide on the basis of positive ninhydrin spots obtained when a hydrolysate of AP-A was chromatographed.

isolated heart [11] = experiment: Cardiotonic effect in the isolated heart, rabbit; type: cell-based
From the text: as §2

isolated heart [12] = experiment: Cardiotonic effect in the isolated heart, dog; type: cell-based
From the text: as §2

Substance: anthopleurin-A
- LD50 (mice): 0.2 to 0.3 mg/kg
- cardiotonic effect in the isolated heart (isolated heart [1]): effective cardiotonic agent
- cardiotonic effect in the in situ heart (in situ heart [2]): effective cardiotonic agent
- ED50, positive inotropic effect ([3]; isolated guinea pig atria): 1.1 nM
- potency relative to ouabain in positive inotropic effect ([3]; times as potent as ouabain): 200-1000 x
- chronotropic effect / effect on heart rate (heart rate): does not show any chronotropic effect
- chronotropic effect / effect on heart rate (heart rate; listed as AP-A): does not have any demonstrable effect
- inhibition of Na, K-ATPase (Na, K-ATPase): none of the following enzymes is inhibited
- inhibition of monoamine oxidase (monoamine oxidase): none of the following enzymes is inhibited
- effect of lowered external K^+ on drug toxicity [4]: does not alter drug toxicity
- sensitivity to Ca^++ concentration [4]: not nearly as sensitive
- mechanical effect on the isolated vascular muscle / vascular smooth muscle (isolated vascular muscle): no demonostrable mechanical effect
- mechanical effect on the isolated vascular muscle / vascular smooth muscle (isolated vascular muscle; listed as AP-A): does not have any demonstrable effect
- cardiotonic effect in the isolated heart (isolated heart [5]): effective cardiotonic agent
- inotropic effect on atria under stress (atria): positive inotropic effect
- inhibition of catechol-O-methyltransferase [6]: none of the following enzymes is inhibited
- cardiotonic effect in the in situ heart (in situ heart [7]): effective cardiotonic agent
- effect on blood pressure (blood pressure): negligible effect
- effect on blood pressure (blood pressure; listed as AP-A): does not have any demonstrable effect
- solubility (Solubility in water): very soluble
- inhibition of cyclic 3', 5'-nucleotide phosphodiesterase [8]: none of the following enzymes is inhibited
- cardiotonic effect in the isolated heart (isolated heart [9]): effective cardiotonic agent
- time stable in solution ([10]; as fraction G, 20.5° C., 10^-7 M solutions, pH 4.55-7.80): at least 24 hours
- loss of cardiotonic activity ([10]; as fraction G, pH above 11): about 90%
- storage stability ([10]; kept at -20° C. for a year as lyophilized fraction C or lyophilized fraction G): no signs of deterioration
- stability versus pH ([10]; neutral and lower pH values): relatively stable
- isoelectric point (Isoelectric focusing): 8.2 pH
- cardiotonic effect in the isolated heart (isolated heart [11]): effective cardiotonic agent
- cardiotonic effect in the isolated heart (isolated heart [12]): effective cardiotonic agent
